Tested on: healthy rats
Settings: rat, in vivo
Experimental: Male rats of the breed Sprague Dawley from Charles River were used at the beginning of the experiment with weight of 200 g (n=8) per group listed below. […] Then for another 4 weeks (week 2-5), the feed mentioned above ad libitum with active substance additive. On the last day of each experiment week, the animals were kept individually in a metabolic cage for 24 hours (day 6 to day 7). Feces and urine were collected. Blood was obtained only on the last collection day. Blood and urine samples were examined by Synlab GmbH.
The groups received as follows from week 2-5 additives per 100 g feed Group A control—no additives
Group B adjuvants—addition of 0.2 g of mannitol and each 0.9 g of inulin and gum arabic
Group D Velphoro®—based on iron as an additive to the feed 250 mg of iron
Group E Fosrenol®—based on lanthanum as an additive to the feed 250 mg lanthanum
Group F Renvela®—based on Sevelamer carbonate 500 mg

Feces excretion 24 hours Weight: 17.1 ± 6.2 g | Urine volumes 24 hours: 16.1 ± 3.6 mL
Substance: sucroferric oxyhydroxide [Velphoro®]
